Reference: patent US20130189351A1, “LIPIDS SUITABLE FOR LIPOSOMAL DELIVERY OF PROTEIN CODING RNA” (priority 2010, published 2013)

Experiment: physchem
Method: The pKa of a lipid is the pH at which 50% of the lipids are charged, lying halfway between the point where the lipids are completely charged and the point where the lipids are completely uncharged.
The pKa of a lipid is measured in water at standard temperature and pressure using the following technique: • 2 mM solution of lipid in ethanol is prepared by weighing the lipid and dissolving in ethanol. 0.3 mM solution of fluorescent probe toluene nitrosulphonic acid (TNS) in ethanol:methanol 9:1 is prepared by first making 3 mM solution of TNS in methanol and then diluting to 0.3 mM with ethanol. • An aqueous buffer containing sodium phosphate, sodium citrate sodium acetate and sodium chloride, at the concentrations 20 mM, 25 mM, 20 mM and 150 mM, respectively, is prepared. The buffer is split into eight parts and the pH adjusted either with 12N HCl or 6N NaOH to 4.44-4.52, 5.27, 6.15-6.21, 6.57, 7.10-7.20, 7.72-7.80, 8.27-8.33 and 10.47-11.12. 400 uL of 2 mM lipid solution and 800 uL of 0.3 mM TNS solution are mixed. • 7.5 μL of probe/lipid mix are added to 242.5 μL of buffer in a 1 mL 96 well plate. This is done with all eight buffers. […]

Compound	pKa
CCCCC/C=C\C/C=C\CCCCCCCCOCC(CN1CCC(C)(C)C1)OCCOCCO[C@H]1CC[C@@]2(C)C(=CC[C@H]3[C@@H]4CC[C@H]([C@H](C)CCCC(C)C)[C@@]4(C)CC[C@@H]32)C1 (some centres unmarked) [RV05]	5.85
CCCCC/C=C\C/C=C\CCCCCCCCOCC(CN1CCCC1C)OCCOCCOCCNC(=O)CCC(=O)O[C@H]1CC[C@@]2(C)C(=CC[C@H]3[C@@H]4CC[C@H]([C@H](C)CCCC(C)C)[C@@]4(C)CC[C@@H]32)C1 (some centres unmarked) [RV10]	7.86
